Paper PMC10250385, “Pregnane X receptor agonist nomilin extends lifespan and healthspan in preclinical models through detoxification functions” (Nature Communications, 2023)

Columns and labels:
[1] = molecular target: T1, human pregnane X receptor (hPXR) (Homo sapiens, UniProt O75469); test: TR-FRET competitive binding assay (LanthaScreen PXR); also activates hPXR in reporter assay; parameters: gene NR1I2; hPXR-LBD-GST
T1 sequence (O75469 130-434 limits assumed): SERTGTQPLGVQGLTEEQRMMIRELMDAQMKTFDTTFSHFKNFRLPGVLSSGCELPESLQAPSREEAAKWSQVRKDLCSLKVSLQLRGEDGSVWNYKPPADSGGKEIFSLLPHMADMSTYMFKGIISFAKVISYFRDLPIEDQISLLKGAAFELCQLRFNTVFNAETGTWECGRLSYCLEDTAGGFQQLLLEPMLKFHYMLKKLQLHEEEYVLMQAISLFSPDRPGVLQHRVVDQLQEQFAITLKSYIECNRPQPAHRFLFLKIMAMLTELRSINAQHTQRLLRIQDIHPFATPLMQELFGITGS

[2] = molecular target: T1, human pregnane X receptor (hPXR); test: biochemical; parameters: gene NR1I2
[3] = molecular target: the molecule itself; test: crystal structure; hPXR^LBD-NCOA1^676–700 co-crystallised with nomilin (1 mM), sitting drop vapour diffusion at 4 °C, 10% (v/v) 2-propanol, 100 mM imidazole/HCl pH 8.0; 2.1 Å; the homodimer is also said to form in the purification (SEC in 150 mM NaCl, 20 mM HEPES, 1 mM TCEP)
[4] = molecular target: T2, ligand-binding domain (LBD) of human pregnane X receptor (hPXR), residues 130–432 (human, UniProt O75469-1 130-432); test: as above; settings: both partners purified
T2 construct: In the crystal it stood on one chain with the NCOA1 peptide, joined by the spacer SSSGGT: see m1; also called hPXR LBD; hPXR^LBD; source: Sf9 (recombinant baculovirus), purified, as part of the fusion protein m1
T2 sequence (looked up): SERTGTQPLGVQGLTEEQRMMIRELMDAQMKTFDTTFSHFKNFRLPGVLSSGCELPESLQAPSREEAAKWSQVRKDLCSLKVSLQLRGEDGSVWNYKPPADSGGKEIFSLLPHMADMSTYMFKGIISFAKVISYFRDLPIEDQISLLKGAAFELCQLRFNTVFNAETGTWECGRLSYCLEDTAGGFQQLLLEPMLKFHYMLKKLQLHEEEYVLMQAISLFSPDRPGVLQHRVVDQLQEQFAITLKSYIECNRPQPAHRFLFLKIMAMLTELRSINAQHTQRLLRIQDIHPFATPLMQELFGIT

Work on `CC1(C)OC(=O)C[C@H](O)[C@]2(C)[C@H]3CC[C@@]4(C)[C@H](c5ccoc5)OC(=O)[C@H]5O[C@]54[C@]3(C)C(=O)C[C@@H]12` [deacetylnomilin] yielded an IC50 [1] of 22.7 µM.

In the case of `CC(=O)O[C@H]1CC(=O)OC(C)(C)[C@@H]2CC(=O)[C@]3(C)[C@H](CC[C@@]4(C)[C@H](c5ccoc5)OC(=O)[C@H]5O[C@]543)[C@@]12C` [nomilin], the IC50 [2] is reported as 5.8 µM.

B1: hPXR^LBD-NCOA1^676–700 fusion protein (other)
chain: SERTGTQPLGVQGLTEEQRMMIRELMDAQMKTFDTTFSHFKNFRLPGVLSSGCELPESLQAPSREEAAKWSQVRKDLCSLKVSLQLRGEDGSVWNYKPPADSGGKEIFSLLPHMADMSTYMFKGIISFAKVISYFRDLPIEDQISLLKGAAFELCQLRFNTVFNAETGTWECGRLSYCLEDTAGGFQQLLLEPMLKFHYMLKKLQLHEEEYVLMQAISLFSPDRPGVLQHRVVDQLQEQFAITLKSYIECNRPQPAHRFLFLKIMAMLTELRSINAQHTQRLLRIQDIHPFATPLMQELFGITSSSGGTCPSSHSSLTERHKILHRLLQEGSPS
notes: spacer -Ser-Ser-Ser-Gly-Gly-Thr- between the hPXR LBD and the NCOA1 peptide; A TEV protease recognition site stood between the NCOA1 peptide and the His6 tag; Crystallised with nomilin in the ligand pocket; also called hPXR chimera; source: Sf9 (recombinant baculovirus), purified (Talon IMAC, TEV cleavage, second IMAC, SEC on Superdex 200 Increase); not shown: His6, C-terminal, cleaved
For B1, the “stoichiometry N” value [3] was 2.

B2: nuclear receptor coactivator 1 residues 676–700 (NCOA1^676–700) (peptide, UniProt Q15788-1 676-700, looked up)
peptide: CPSSHSSLTERHKILHRLLQEGSPS
notes: In the crystal it stood on one chain with the hPXR LBD, joined to its C-terminus by the spacer SSSGGT: see m1; source: Sf9 (recombinant baculovirus), purified, as part of the fusion protein m1; not shown: His6, C-terminal, cleaved
B2: binds [4].
